Holding throughout (format): cell-based
Series [1] concerns Bone marrow-derived human mesenchymal stem cells (BM-hMSC). Nature of the series: Cells cultured by hanging drop method, ATP assay (Experimental Example 12). To be noted: for cell number (relative value): BM-hMSC, hanging drop, 5 μM, 2 days, control = 100%; for cell number (in words): bone marrow-derived human mesenchymal stem cells, hanging drop method. The method, then: (§1) Human epithelial-like cell cancer-derived cell line A431 (manufactured by ATCC) was cultured using 10% FBS and 1% MEM non-essential amino acid solution (MEM NEAA, manufactured by Wako Pure Chemical Industries, Ltd.)-containing EMEM (manufactured by Wako Pure Chemical Industries, Ltd.)). In addition, bone marrow-derived human mesenchymal stem cells (BM-hMSC, manufactured by PromoCell) were cultured using a mesenchymal stem cell proliferation medium (manufactured by PromoCell). Each of the above-mentioned cells in the logarithmic growth phase was washed with PBS, a 0.25 w/v % trypsin-1 mmol/L EDTA (ethylenediaminetetraacetic acid) solution (manufactured by Wako Pure Chemical Industries, Ltd.) was added, and the cells were detached by incubating at 37° C. for 3 min. Each medium was added, the mixture was centrifuged, and the supernatant was removed.
(§2) The cell suspension was seeded by 10 μL in 15 drops on the back surface of the lid of a 3.5 cm dish (manufactured by Falcon, #351008) to form droplets. At this time, as a control, a medium supplemented with DMSO (final concentration of DMSO: 0.05%) was seeded by 10 μL in 15 drops. The lid was returned to a 3.5 cm dish added with 2 mL of PBS, and cultured for 2 days in an incubator at 37° C., 5% CO2. The cultured droplets were collected in a 1.5 mL tube, and the medium was added to a final volume of 150 μL.

The test system of series [2] is human epithelial-like cell cancer-derived cell line A431. The series is described as above. To be noted: for cell number (in words): A431 cell line, three-dimensional cell culture by the hanging drop method; for cell number (relative value): A431 cell, hanging drop, 5 μM, 2 days, control = 100%. The method, then:
as §1, §2

The subject of series [3] is Mouse embryonic fibroblast C3H10T1/2. Description: Fibroblast strain C3H10T1/2, 3D culture, ATP assay (Experimental Example 11). To be noted: for proliferation activity (in words): fibroblast under three-dimensional conditions. The procedure:
Mouse embryonic fibroblast C3H10T1/2 (manufactured by DS PHARMA BIO MEDICAL) was cultured in a BME medium (manufactured by Thermo Fisher Scientific) containing 10 (v/v) % FBS (manufactured by Corning) and the L-glutamine-penicillin-streptomycin stabilizing solution (manufactured by Sigma-Aldrich). The above-mentioned cells in the logarithmic growth phase were washed with PBS, a 0.25 w/v % trypsin-1 mmol/L EDTA (ethylenediaminetetraacetic acid) solution (manufactured by Wako Pure Chemical Industries, Ltd.) was added, and the cells were detached by incubating at 37° C. for 3 min. Each medium was added, the mixture was centrifuged, and the supernatant was removed.
The aforementioned various cells were suspended in respective deacylated gellan gum-containing or not containing media (deacylated gellan gum concentration was 0.015 w/v %), and seeded in a 96 well low attachment U-bottom plate (manufactured by Corning, #4520, deacylated gellan gum-free medium) at a cell concentration of 700-2000 cells/90 μL/well (3D culture). […] The amount of each compound solution to be added was 10 μL/well. As a control, a DMSO solution dissolved in a medium was added (DMSO final concentration 0.1%). […] When compared with the compound no-addition (control), one showing a value of not more than 119% as -, one showing a value of not less than 120% as ◯, and one showing a value of not less than 150% as ⊚ are shown in the eighteenth table. Unperformed test is left blank.

Series [4] concerns Human mesenchymal stem cells (hMSC). Nature of the series: Human mesenchymal stem cells-1: viable cell count, 2D and 3D culture (Experimental Example 9). The note with it: for cell proliferation rate (relative value): hMSC, 10 μM, 7 days, compound non-addition = 1; for number of hMSC cells (in words): two-dimensional and three-dimensional cell culture conditions. The procedure: (§3) Human mesenchymal stem cells (hMSC, manufactured by TOYOBO) were precultured by a single layer culture method (2D) using an MF-medium mesenchymal stem cell proliferation medium (manufactured by TOYOBO). In three-dimensional culture method (3D), hMSC were suspended in a medium composition added with deacylated gellan gum, and seeded in a […] flat bottom Ultr-low Attachment surface plate (manufactured by Corning Incorporated, #3471) at 1.2×10^5 cells/2 mL/well. In 2D, hMSC were suspended in a deacylated gellan gum-free medium composition, and seeded in a 6-well flat bottom plate (manufactured by Corning Incorporated, #3516) at 4.0×10^4 cells/2 mL/well. […] As a control, DMSO was added at a final concentration of 0.1%. Seven days later, in the three-dimensional culture method, cells were collected from the wells, washed with PBS, and the supernatant was removed. Then, a trypsin 0.25 w/v % trypsin-1 mmol/L EDTA (ethylenediaminetetraacetic acid) solution (manufactured by Wako Pure Chemical Industries, Ltd.) was added and the cells were incubated at 37° C. for 2-5 min to disperse the spheres into single cells. The medium was added, and the mixture was centrifuged to remove the supernatant. Thereafter, the cells were resuspended in the same medium, a part was suspended in Trypan Blue (manufactured by Wako Pure Chemical Industries, Ltd.), and the number of viable cells was counted using automatic cell counter TC20 (manufactured by BIO-RAD).
In a single layer culture method, the cells were washed with PBS, 0.25 w/v % trypsin-1 mmol/L EDTA solution was added, and the cells were detached by incubating at 37° C. for 2-5 min. The medium was added, the mixture was centrifuged and the supernatant was removed. Thereafter, the cells were resuspended in the same medium, a part was suspended in Trypan Blue (manufactured by Wako Pure Chemical Industries, Ltd.) and the number of viable cells was counted using TC-20 (manufactured by BIO-RAD).
(§4) CD34 antibody (APC, manufactured by BD Bioscience), CD73 (BV421, manufactured by BD Bioscience), CD29 (BB515, manufactured by BD Bioscience) were added to the above-mentioned cell suspension, and the mixture was incubated on ice for 30 min. The cells were washed twice with 2% SM buffer (2% FBS/PBS), SM containing 1 μg/mL of Propidium Iodide (PI) was added, and the mixture was analyzed with FACSAria (manufactured by Becton Dickinson). The cell number with compound non-addition (control) was taken as 1, and relative value with addition of each compound is calculated in the fifteenth table. The positive rates or negative rates of CD34, CD73, and CD29 of cells after three-dimensional culture (3D) under the conditions with no addition or addition of the compound are shown in the sixteenth table.

The next series deals with CD34, CD73, CD29 of hMSC. Nature of the series: Human mesenchymal stem cells-1: cell surface markers by FACS after 3D culture (Experimental Example 9). The note with it: for CD34+ (negative rate) / CD29+ (positive rate) / CD73+ (positive rate): hMSC after 3D culture, 10 μM, 7 days; for CD34+ (negative rate): no addition 0.9%; for CD29+ (positive rate): no addition 94.6%; for CD73+ (positive rate): no addition 99.9%; for undifferentiated state of hMSCs (in words): surface markers CD34, CD73, CD29 did not change. The method, then: as §3, §4

The mark [5] stands for this setting: C3H10T1/2, low attachment U-bottom plate, 1 μM, 4 days.
Where [6] appears, read: Mus musculus, C3H 10T1/2, 96 h, C3H10T1/2, low attachment U-bottom plate, 1 μM, 4 days, read-out: number of viable cells (RLU), relative value to control (100%).

Take `CC/C(=N\NC(=O)C(C)Nc1ccccc1)c1ccc(O)c(C)c1O` (centres unmarked) [k-1:B-1]: the entries for the “cell number (relative value)” value in series [1] and in series [2] were 223% and 227%, respectively. The “cell number (in words)” value in series [1] and in series [2] was “showed an effect of increasing the number” each time. The “number of viable cells (RLU), relative value to control (100%)” value in series [3] (setting [5]) is on record as “⊙”; in series [3] (C3H10T1/2, low attachment U-bottom plate, 5 μM, 4 days), “⊙”. For the same compound, the “proliferation activity (in words)” value in series [3] is listed as “promoted proliferation activity in fibroblast”.

For the compound `CC/C(=N\NC(=O)CNc1cccc(O)c1)c1ccc(O)c(C)c1O` [k-1:D-1], in series [3] (setting [6]), the viability at 1 µM was more than 120%. Also, the “proliferation activity (in words)” value in series [3] is on record as “promoted proliferation activity in fibroblast”.

With `CCC(=NNC(=O)C(CC)Nc1ccccc1)c1ccc(O)c(C)c1O` (centres unmarked) [k-1:H-7], in series [1], the “cell number (relative value)” value is 206% and the “cell number (in words)” value is on record as “showed an effect of increasing the number”. In series [2], the “cell number (in words)” value is given as “showed an effect of increasing the number” and the “cell number (relative value)” value turned out to be 232%. In addition, the “cell proliferation rate (relative value)” value in series [4] (2D) stood at 1.9. In addition, the “cell proliferation rate (relative value)” value in series [4] (3D (deacylated gellan gum)) is 4. Moreover, in series [4], the “number of hMSC cells (in words)” value is recorded as “showed an effect of increasing the number of hMSC cells”. In the series with CD34, CD73, CD29 of hMSC, the “CD34+ (negative rate)” value turned out to be 3%, the “CD29+ (positive rate)” value stood at 94.6%, the “CD73+ (positive rate)” value is 100% and the “undifferentiated state of hMSCs (in words)” value is recorded as “promote cell proliferation while maintaining undifferentiated state of hMSCs”.

As to `CC/C(=N\NC(=O)Nc1ccccc1)c1ccc(O)c(C)c1O` [k-1:H-10], the “cell proliferation rate (relative value)” value in series [4] (2D) was found to be 1.3. In addition, the “cell proliferation rate (relative value)” value in series [4] (3D (deacylated gellan gum)) was determined as 1.7. For the same compound, the “number of hMSC cells (in words)” value in series [4] is reported as “showed an effect of increasing the number of hMSC cells”. For the same compound, in the series on CD34, CD73, CD29 of hMSC, the “CD34+ (negative rate)” value is given as 0.7%, the “CD29+ (positive rate)” value is on record as 87.6%, the “CD73+ (positive rate)” value is listed as 99.1% and the “undifferentiated state of hMSCs (in words)” value is “promote cell proliferation while maintaining undifferentiated state of hMSCs”.

Regarding `CC/C(=N\NC(=O)NCc1ccccc1)c1ccc(O)c(C)c1O` [k-1:I-1], the viability at 1 µM in series [3] (setting [6]) was more than 120%. Besides, in series [3] (Mus musculus, C3H 10T1/2, 96 h, C3H10T1/2, low attachment U-bottom plate, 5 μM, 4 days, read-out: number of viable cells (RLU), relative value to control (100%)), the viability at 5 µM was more than 120%. Besides, the “proliferation activity (in words)” value in series [3] was “promoted proliferation activity in fibroblast”.

For the compound `CC/C(=N\NC(=O)NCc1cccc(O)c1)c1ccc(O)c(C)c1O` [k-1:J-1], the “number of viable cells (RLU), relative value to control (100%)” value in series [3] (setting [5]) is listed as “⊙”. Besides, the “proliferation activity (in words)” value in series [3] is listed as “promoted proliferation activity in fibroblast”.

The values are drawn from patent US20200165194A1, “ADDITIVE COMPOSITION FOR CULTURE MEDIUM, ADDITIVE COMPOUND FOR CULTURE MEDIUM, AND METHOD FOR CULTURE OF CELLS OR TISSUE USING SAME” (NISSAN CHEMICAL CORPORATION, priority 2017, published 2020).
